{
  "source": "BindingDB's records for doi:10.1016/S0960-894X(01)80994-X",
  "about": "(1993)",
  "note": "Where a SMILES comes first, the peptide text is derived from it. The star is where a group is joined. Cbz = O=C(OCc1ccccc1)*",
  "data": [
    {"assay": "Inhibition of putative Endothelin-converting enzyme partially purified from rabbit lung membranes", "units": {"IC50": "µM"}, "values": [
      {"molecule": "COC(=O)[C@H](Cc1c[nH]c2ccccc12)NC(=O)[C@H](CC(C)C)NC(=O)[C@H](CS)NC(=O)OCc1ccccc1", "note": "[2-[(S)-2-((R)-2-Benzyloxycarbonylamino-3-mercapto-propionylamino)-4-methyl-pentanoylamino]-3-(1H-indol-3-yl)-propionic acid (S)-methyl ester] (Cbz-Cys-Leu-Trp-OMe)", "IC50": 31},
      {"molecule": "CC(C)CC(C(=O)NO)C(=O)N[C@@H](Cc1c[nH]c2ccccc12)C(=O)O", "note": "(stereo partly drawn) [(S)-2-(2-Hydroxycarbamoyl-4-methyl-pentanoylamino)-3-(1H-indol-3-yl)-propionic acid]", "IC50": 24},
      {"molecule": "O=C(N[C@@H](CS)C(=O)N[C@@H](Cc1c[nH]c2ccccc12)C(=O)O)OCc1ccccc1", "note": "[(S)-2-((R)-2-Benzyloxycarbonylamino-3-mercapto-propionylamino)-3-(1H-indol-3-yl)-propionic acid] (Cbz-Cys-Trp-OH)", "IC50": 30},
      {"molecule": "COC(=O)[C@H](CC(C)C)NC(=O)[C@@H](CS)NC(=O)OCc1ccccc1", "note": "[(S)-2-((S)-2-Benzyloxycarbonylamino-3-mercapto-propionylamino)-4-methyl-pentanoic acid methyl ester]", "IC50": 4},
      {"molecule": "COC(=O)[C@H](Cc1c[nH]c2ccccc12)NC(=O)[C@H](CS)NC(=O)OCc1ccccc1", "note": "[(S)-2-[2-((R)-Benzyloxycarbonylamino)-3-mercapto-propionylamino]-3-(1H-indol-3-yl)-propionic acid methyl ester] (Cbz-Cys-Trp-OMe)", "IC50": 47}
    ]}
  ]
}
